Data from patent US20200121605A1, “METHODS AND COMPOSITIONS FOR LOCALIZED INTRADUCTAL DRUG DELIVERY TO THE BREAST AND REGIONAL LYMPH NODES” (South Dakota Board of Regents, priority 2018, published 2020).

Columns and labels:
[1] = design: species or system rats; details: rat, in vivo
Protocol: (§1) For In vivo studies, the levels of 4-hydroxytamoxifen and endoxifen were measured using LC-MS.
(§2) The tissues were mixed with TRIS HCl buffer (1 ml/mg) and homogenized at 6000 rpm for 3 minutes under ice. For lymph nodes, sonication (45% amplitude in pulse mode 1 sec on and 1 sec off for 2 minutes under ice) was used to homogenize the tissue. From this, 200 μl of tissue homogenate was mixed with 800 μl of acetonitrile to precipitate proteins (1:4 v/v). This was then vortexed for 1-2 minutes followed by sonication for 3 minutes. The plasma was then centrifuged at 10,000 rpm at 4° C. for 10 minutes. The supernatant was collected and evaporated to dryness under gentle stream of Argon. The residue was then reconstituted with 100 μl of Ammonium Formate, pH 3.5: Acetonitrile (7:3 v/v). This was vortexed for 1 minute followed by sonication for 2 minutes. The reconstituted mixture was centrifuged at 10,000 rpm for 10 minutes at 4° C. The supernatant was collected and 15 μl was injected into LC-MS to determine drug levels.

[2] = rat, in vivo
Protocol: as §1, §2

[3] = Plasma levels of tamoxifen and metabolites after intraductal injection of tamoxifen formulations (LC-MS); assay type: in vivo
Protocol: (§3) For In vivo studies, the levels of Tamoxifen and two major metabolites 4-hydroxytamoxifen (4HT) and endoxifen (EDX) were measured using LC-MS. (Liquid chromatography-Mass spectroscopy)
For determining drug levels in plasma, 100 μl of plasma was mixed with 400 μl of acetonitrile to precipitate proteins (1:4 v/v). This was then vortexed for 1-2 minutes followed by sonication for 3 minutes. The plasma was then centrifuged at 10,000 rpm at 4° C. for 10 minutes. The supernatant was collected and evaporated to dryness under gentle stream of Argon. The residue was then reconstituted with 100 μl of ammonium formate, (pH 3.5): acetonitrile (7:3 v/v). This was vortexed for 1 minute followed by sonication for 2 minutes. The reconstituted mixture was centrifuged at 10,000 rpm for 10 minutes at 4° C. The supernatant was collected and 15 μl was injected into LC-MS to determine drug levels.

[4] = Organ distribution of tamoxifen PLGA formulations; assay type: in vivo; details: end of the treatment
Protocol: as §3
(§4) The mammary gland and all the other vital organs (liver, spleen, kidney, lungs, heart, and uterus) were weighed and washed with PBS to remove blood. The tissues were mixed with TRIS HCl buffer (1 ml/mg) and homogenized at 6000 rpm for 3 minutes under ice. For lymph nodes, sonication (45% amplitude in pulse mode 1 sec on and 1 sec off for 2 minutes under ice) was used for homogenization. From this, 200 μl of tissue homogenate was mixed with 800 μl of acetonitrile (1:4 v/v) for protein precipitation. This was vortexed for 1-2 minutes followed by sonication for 3 minutes. The homogenate was centrifuged at 10,000 rpm at 4° C. for 10 minutes. The supernatant was collected and evaporated to dryness under gentle stream of Argon. The residue was reconstituted with 100 μl of ammonium formate (pH 3.5): acetonitrile (7:3 v/v). This was vortexed for 1 minute followed by sonication for 2 minutes. The reconstituted mixture was centrifuged at 10,000 rpm for 10 minutes at 4° C. The supernatant was gently removed and 15 μl was injected into LC-MS for quantification.

[5] = Breast (mammary gland) concentration of tamoxifen and 4-hydroxytamoxifen after intraductal injection; assay type: in vivo
Protocol: as §3, §4

[6] = Imaging of regional (axillary) lymph nodes after intraductal injection; assay type: in vivo, female Sprague Dawley rats
Protocol: Intraductal injection was performed following the method described in the previous section. Regional lymph nodes (Axillary lymph node) were identified and dissected at 2 hours, 24 hours and 48 hours after intraductal injection. The lymph nodes were then imaged using whole body animal imaging system to determine the localization of formulation in the lymph nodes.

[7] = Intraductal retention of Cy5.5 labelled PLGA formulations, whole body imaging; assay type: in vivo, Female SD rats
Protocol: Female SD rats were anesthetized using isoflurane and the hair around the nipple region was removed using hair removing cream. The keratin plug from the inguinal mammary gland (5th or 6th nipple from the head) was removed gently holding the nipple using tweezers and wiping with 70% alcohol.
For microspheres and nanoparticles, around 0.5 to 1.5 mg particles was dispersed in PBS containing 0.5% w/v Tween 80 and vortexed for 30-60 seconds. For In situ implants, 50-100 μl of gel containing an equivalent amount of Cy5.5 was used. After dilation of the nipple orifice, 50-100 μl of the formulation was injected intraductally into the inguinal mammary glands using 27-31 G needle under a surgical microscope.
The animals were imaged using Bruker in Vivo Xtreme II optical imaging system at predetermined time points (0 to 96 hours) to study the distribution of the carrier system in the breast. Following instrument settings were used: Excitation/Emission: 690/750 nm; Bin: 1×1 pixels; Exposure time: 20 seconds, f-stop: 1.2, FOV: 19. Fluorescence intensities were plotted against time by choosing a constant ROI around the injected mammary gland and subtracting the fluorescence intensity from the contralateral mammary gland.

[8] = breast (mammary gland), tamoxifen in breast
[9] = intraductal retention, Cy 5.5 fluorescence intensity profile, 0 to 96 hours

Q: With “4-hydroxytamoxifen [Free 4-hydroxy tamoxifen]” as the molecule, how does the “4 hydroxy tamoxifen in the tissues” value [1] read?
A: Its value is “undetectable”.

Q: And the “systemic exposure of endoxifen in all the tissues” value [1]?
A: Its value is “higher systemic exposure”.

Q: What about the “retention in the mammary gland, in words” value [2] of the same molecule?
A: Its value is “very low levels”.

Q: With `CC/C(=C(\c1ccccc1)c1ccc(OCCN(C)C)cc1)c1ccccc1` [Free TMX, tamoxifen] as the molecule, how does the “duration of detectable plasma tamoxifen” value [3] read?
A: Its value is 3 days.

Q: What about the AUC ([3]; Tamoxifen in plasma) of the same molecule?
A: The AUC was 116 ± 43.3 ng·h/mL.

Q: What about the AUMC ([3]; Tamoxifen in plasma) of the same molecule?
A: Its AUMC is 4546.37 ± 466.103 ng · hr^2/ml.

Q: What about the Cmax ([3]; Tamoxifen in plasma) of the same molecule?
A: The Cmax was 8.9 ± 1.55 ng/mL.

Q: And the MRT ([3]; Tamoxifen in plasma)?
A: Its MRT is 47.7 ± 3.15 h.

Q: What about the Tmax ([3]; Tamoxifen in plasma) of the same molecule?
A: The Tmax was 18 min.

Q: And the half-life ([3]; Tamoxifen in plasma)?
A: The half-life was 1170 ± 254 min.

Q: And the ke ([3]; Tamoxifen in plasma)?
A: Its ke is 0.015 ± 0.002 h⁻¹.

Q: And the “uterine exposure of tamoxifen and metabolites” value [4]?
A: The value was “resulted in uterine exposure”.

Q: What about the “not retained in the mammary glands after” value [5] of the same molecule?
A: The value was 3 days.

Q: And the “retained in the mammary gland for only” value [5]?
A: Its value is 72 h.

Q: What about the AUC [5, 8] of the same molecule?
A: The AUC was 125 ± 3.69 µg·h/mL.

Q: And the Cmax [5, 8]?
A: Its Cmax is 4370 ± 67.7 ng/mL.

Q: And the MRT [5, 8]?
A: The MRT was 26.5 ± 4.3 h.

Q: What about the Tmax [5, 8] of the same molecule?
A: Its Tmax is 12 h.

Q: What about the half-life [5, 8] of the same molecule?
A: The half-life was 892.2 ± 2.4 min.

Q: And the ke ([5]; tamoxifen in breast)?
A: Its ke is 0.020 ± 0.0005.

Q: Which results are given for Cy 5.5?
A: localization (fluorescence) in the axillary lymph nodes up to [6]: ≤ 1 h; no fluorescence signals recorded after ([7]; breast ducts, non-invasive imaging): 4 h; k [7, 9]: 0.40 ± 0.03 h⁻¹; t1/2 (retention half-life) [7, 9]: 1.70 ± 0.16 h
